Data reported in PMC12051620, “Molecular basis underlying the specificity of an antagonist AA92593 for mammalian melanopsins” (The Journal of Biological Chemistry, 2025).

Assays:
[1] = biological target: T1, mouse melanopsin F94^2.61C/S188^ECL2T/S269^6.52A mutant (Mus musculus, UniProt Q9QXZ9, F126C/S221T/S310A); experiment: NanoBiT Gq dissociation assay; format: cell-based; conditions: 1.67 and 16.7 μM AA92593; COS-1 cells
T1 construct: expressed in transfected cells; host or cells: COS-1
Text: As described above, we have assessed the inhibitory effect of AA92593 using the GsX GloSensor assay. To confirm whether an antagonistic effect could be observed in another experimental system, we used the NanoBiT G protein dissociation assay ([23]). In this assay, Gq activation (dissociation) is detected as a decrease in NanoLuc luminescence from the Lg-BiT fragment inserted with Gqα and the Sm-BiT fragment fused with Gβγ (see “Experimental procedures”) ([23], [24]). If an antagonistic effect is observed in the NanoBiT assay, the light-dependent decrease in luminescence (Gq dissociation) by melanopsin would be reduced in the presence of AA92593. […]
For GloSensor assay, opsins, GloSensor assay sensor (coded by pGlo-22F), and NanoBiT-tagged G proteins were transiently expressed in COS-1 cells (kindly provided from Dr David Farrens, Oregon Health and Science University) using PEI as described previously ([24], [52]). […] For GFP-fluorescence microscopy, a 35-mm cell culture dish (IWAKI) was transfected with 2 μg melanopsin-GFP plasmid and 8 μg PEI in 400 μl Opti-mem and 1.2 ml D-MEM. […]
The transfected COS-1 cells were incubated at 37 °C, 5% CO2 for 1 day, and the medium was aspirated, followed by the addition of 50 μl of HBSS containing 33.3, 3.33, or 0 μM AA92593, 0.5% DMSO, and 10 μM coelenterazine h (Wako). […] Luminescence was measured using GM-2000 or GM-3510 microplate reader (Promega). […]

[2] = dissolution in HBSS assay solution; format: physicochemical; conditions: HBSS solution pH 7.4, 0.5% DMSO
Experimental: The transfected COS-1 cells were incubated at 37 °C, 5% CO2 for 2 days, and the medium was aspirated and exchanged with 50 μl of HBSS (145 mM NaCl, 10 mM D-glucose, 5 mM KCl, 1 mM MgCl2, 1.7 mM CaCl2, 1.5 mM NaHCO3, 10 mM Hepes, pH 7.4), containing 33.3, 20, 10, 2, 0.2, 0.02, 0.002, or 0 μM AA92593, 0.5% dimetyl sulfoxide (DMSO), and 4% (vol/vol) GloSensor cAMP reagent stock solution. Under our experimental conditions, >50 μM AA92593 was not fully dissolved in the HBSS solution, and we set maximal concentration of AA92593 (Glixx Laboratories) at 33.3 μM (final concentration of 16.7 μM, see below). Then, the cells were incubated at room temperature for 1 h, and luminescence changes were monitored. After incubation of the cells with AA92593, luminescence measurement was interrupted, the plate was ejected, and the cells were added with 50 μl of HBSS containing 0.2 μM 9-cis-retinal. […] Luminescence was measured using GM-2000 or GM-3510 microplate reader (Promega). Luminescence level of each well was measured every 30 s with integration time of 0.6 to 0.9 s. To illuminate opsins, luminescence measurement was interrupted, the plate was ejected, and the plate was illuminated by white light with CN-160 LED video light (light intensity, ∼9 mW/cm^2) (NEEWER). […] After illumination, luminescence measurement was resumed. […]

T1 sequence (Q9QXZ9 1-381 F126C/S221T/S310A): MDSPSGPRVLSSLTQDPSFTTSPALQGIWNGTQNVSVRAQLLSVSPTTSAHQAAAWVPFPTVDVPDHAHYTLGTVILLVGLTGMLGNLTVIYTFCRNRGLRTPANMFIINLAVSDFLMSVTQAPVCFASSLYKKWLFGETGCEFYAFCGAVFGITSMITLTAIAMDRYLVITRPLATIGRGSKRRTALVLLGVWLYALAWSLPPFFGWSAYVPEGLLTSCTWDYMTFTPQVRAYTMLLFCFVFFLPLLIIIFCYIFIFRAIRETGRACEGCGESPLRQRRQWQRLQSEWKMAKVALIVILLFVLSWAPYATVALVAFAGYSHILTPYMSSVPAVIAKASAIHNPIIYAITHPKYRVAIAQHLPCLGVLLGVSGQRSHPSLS

COc1ccc(S(=O)(=O)N2CCCCC2)cc1C [AA92593]
antagonistic effect on Gq activation compared to WT [1]: similarly reduced | concentration at which AA92593 was not fully dissolved [2]: > 50 µM
